Source: US7833736B2, “Protein markers of responsiveness to type III receptor tyrosine kinase inhibitors” (Cell Signaling Technology, Inc., priority 2006, dated 2010)

System: human tumor xenografts
Assay: Growth of human tumor xenografts under OSI-930 (growth curves of xenograft tumor mass)
Type: in vivo, mice

SMILES: O=C(Nc1ccc(OC(F)(F)F)cc1)c1sccc1NCc1ccnc2ccccc12 [OSI-930]
- response of xenograft tumor growth to the drug (growth curves of tumor mass) (five of the cell line xenograft models, data not shown): resistant
- response of xenograft tumor growth to the drug (growth curves of tumor mass) (the other seven cell line xenograft models): significant inhibition of tumor growth
